Several values for one entry are separate records, joined by “and”; a condition that tells them apart may be missing. Identical values can stand only once.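 Tested at 5 concentrations; 48 h exposure; 96-well plates; endpoints linearly interpolated, else capped at highest concentration. The concentration for 50% growth inhibition is given as GI50. TGI: concentration producing complete growth inhibition.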
Assays:
Test in all cases: DTP human tumour cell line panel, 48 h
[1] = system: RXF 393 renal
[2] = system: K-562 leukemia
[3] = system: MALME-3M melanoma
[4] = system: LXFL 529 NSCLC
[5] = system: CCRF-CEM leukemia
[6] = system: OVCAR-3 ovarian
[7] = system: HOP-62 NSCLC
[8] = system: NCI-H522 lung
[9] = system: A498 renal
[10] = system: IGROV1 ovarian
[11] = system: KM12 colon
[12] = system: U251 CNS
[13] = system: RPMI-8226 leukemia
[14] = system: SF-295 CNS
[15] = system: UACC-62 melanoma
[16] = system: COLO 205 colon
[17] = system: 786-0 renal
[18] = system: HL-60(TB) leukemia
[19] = system: M14 melanoma
[20] = system: SK-OV-3 ovarian
[21] = system: ACHN renal
[22] = system: SNB-19 CNS
[23] = system: SF-268 CNS
[24] = system: NCI-H460 lung
[25] = system: SNB-78 CNS
[26] = system: HOP-92 NSCLC
[27] = system: OVCAR-4 ovarian
[28] = system: UACC-257 melanoma
[29] = system: HT29 colon
[30] = system: UO-31 renal
[31] = system: M19-MEL melanoma
[32] = system: SK-MEL-2 melanoma
[33] = system: NCI-H23 lung
[34] = system: OVCAR-5 ovarian
[35] = system: KM20L2 colon
[36] = system: SNB-75 CNS
[37] = system: SK-MEL-28 melanoma
[38] = system: SF-539 CNS
[39] = system: OVCAR-8 ovarian
[40] = system: SN12C renal
[41] = system: T-47D breast
[42] = system: HCT-15 colon
[43] = system: MDA-MB-231 breast
[44] = system: MCF7 breast
[45] = system: SR leukemia
[46] = system: PC-3 prostate
[47] = system: CAKI-1 renal
[48] = system: SW-620 colon
[49] = system: A549 NSCLC
[50] = system: MDA-MB-435
[51] = system: HS 578T breast
[52] = system: MDA-N
[53] = system: NCI/ADR-RES ovarian
[54] = system: NCI-H226 lung
[55] = system: DU-145 prostate
[56] = system: EKVX NSCLC
[57] = system: LOX IMVI melanoma
[58] = system: BT-549 breast
[59] = system: SK-MEL-5 melanoma
[60] = system: HCT-116 colon
[61] = system: TK-10 renal

In the case of CCN(CC)CCN1C(=O)CC2[C@@H]3CCc4cc(OC)ccc4C3CC[C@]2(C)C1=O (some centres not stated), the TGI [1] is reported as 92.3 µM, the TGI [2] is reported as 36.1 µM and the TGI [3] is reported as 33.4 µM. For the same compound, the TGI [4] was 30.9 µM, the TGI [5] was 39.2 µM and the TGI [6] was > 100 µM. For the same compound, the TGI [7] was 54.2 µM, the TGI [8] was 53.7 µM and the TGI [9] was > 100 µM. The TGI [10] was > 100 µM, the TGI [11] was > 100 µM and the TGI [12] was > 100 µM. It also gave a TGI [13] of 66 µM, a TGI [14] of 37.6 µM and a TGI [15] of 36 µM. The TGI [16] was 39.1 µM, the TGI [17] was 31.1 µM and the TGI [18] was 36.7 µM. The TGI [19] was 33.1 µM, the TGI [20] was > 100 µM and the TGI [21] was > 100 µM. For the same compound, the TGI [22] was > 100 µM, the TGI [23] was > 100 µM and the TGI [24] was > 100 µM. For the same compound, the TGI [25] was > 100 µM, the TGI [26] was > 100 µM and the TGI [27] was > 100 µM. It also gave a TGI [28] of 30.2 µM, a TGI [29] of 41.4 µM and a TGI [30] of 64.6 µM. For the same compound, the TGI [31] was 35.8 µM, the TGI [32] was 37.4 µM and the TGI [33] was > 100 µM. For the same compound, the TGI [34] was > 100 µM, the TGI [35] was 46 µM and the TGI [36] was > 100 µM. It also gave a TGI [37] of 33.1 µM and a TGI [38] of 19.5 µM.

With S=C(S)N1CCCCC1 the TGI [1] was > 406 µM, the GI50 [2] was > 406 µM and the GI50 [3] was 40.6 µM and 129 µM. For the same compound, the TGI [3] was 64.8 µM and > 406 µM, the GI50 [39] was 22.9 µM and 15.9 µM and the TGI [39] was > 406 µM. For the same compound, the GI50 [40] was 89.7 µM and 49.8 µM, the TGI [40] was > 406 µM and the GI50 [41] was 45.7 µM. The TGI [41] was 299 µM, the GI50 [42] was 25.3 µM and 22.8 µM and the TGI [42] was 177 µM. For the same compound, the TGI [43] was > 406 µM, the TGI [44] was 88.3 µM and the GI50 [45] was 17.5 µM and 80.7 µM. The TGI [45] was 67 µM and > 406 µM, the TGI [6] was > 406 µM and the GI50 [7] was 17 µM. The TGI [7] was > 406 µM, the GI50 [8] was 28 µM and the TGI [46] was 70.4 µM and > 406 µM. The GI50 [10] was 55.2 µM and 10.5 µM, the TGI [10] was 100 µM and the GI50 [11] was 50.2 µM and 51.8 µM. For the same compound, the TGI [11] was 137 µM, the GI50 [47] was 19.9 µM and the TGI [47] was 99.1 µM and > 406 µM. For the same compound, the GI50 [12] was 60.3 µM, the TGI [12] was > 406 µM and the GI50 [48] was 21.6 µM and 18.4 µM. The TGI [48] was 66.1 µM and 63.6 µM, the GI50 [49] was 71.6 µM and the TGI [49] was > 406 µM. The TGI [13] was 68.3 µM and > 406 µM, the GI50 [50] was 20.4 µM and the TGI [50] was 67.9 µM and > 406 µM. The TGI [51] was > 406 µM, the GI50 [14] was 34 µM and 39.3 µM and the TGI [14] was > 406 µM. For the same compound, the GI50 [15] was 19.8 µM, the TGI [15] was > 46.3 µM and 82.5 µM and the TGI [16] was 82.7 µM. For the same compound, the GI50 [52] was 70.4 µM, the TGI [52] was 46.6 µM and the GI50 [17] was 12.9 µM and 64.5 µM. For the same compound, the TGI [17] was > 406 µM, the GI50 [19] was 10.9 µM and the TGI [19] was 85.7 µM and 29.7 µM. For the same compound, the GI50 [53] was 20.8 µM, the TGI [53] was 93.5 µM and 173 µM and the TGI [20] was 353 µM. For the same compound, the GI50 [21] was 19.6 µM and 54.3 µM, the TGI [21] was > 406 µM and the TGI [22] was > 406 µM. For the same compound, the GI50 [23] was 26 µM and 106 µM, the TGI [23] was > 406 µM and the TGI [24] was 85 µM. For the same compound, the GI50 [54] was 42.4 µM, the TGI [54] was > 406 µM and the TGI [55] was > 406 µM. The GI50 [26] was 24.9 µM and 116 µM, the TGI [26] was > 406 µM and the GI50 [27] was 51 µM. For the same compound, the TGI [27] was 295 µM, the GI50 [56] was 46.5 µM and the TGI [56] was > 406 µM. For the same compound, the GI50 [28] was 30.7 µM and 38 µM, the TGI [28] was > 406 µM and the GI50 [57] was 11.2 µM and 8.18 µM. For the same compound, the TGI [57] was 26.6 µM and 16.3 µM, the TGI [58] was > 406 µM and the TGI [59] was 81.5 µM. For the same compound, the GI50 [60] was 12 µM, the TGI [60] was 26.2 µM and 45.3 µM and the GI50 [30] was 20.9 µM. The TGI [30] was 55.5 µM and 398 µM, the TGI [31] was > 46.9 µM and the GI50 [32] was 28.2 µM and 54.1 µM. For the same compound, the TGI [32] was 84.6 µM and 179 µM, the GI50 [33] was 36.6 µM and the TGI [33] was > 406 µM. For the same compound, the TGI [34] was > 406 µM, the GI50 [36] was 28 µM and the TGI [36] was > 406 µM. For the same compound, the GI50 [37] was 89 µM, the TGI [37] was > 406 µM and the TGI [61] was > 406 µM. For the same compound, the GI50 [38] was 32.3 µM and 22.7 µM and the TGI [38] was 83.3 µM and > 406 µM.

Reference: PubChem BioAssay (NCI)
